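96-well plates; 48 h exposure; 5 concentrations. Endpoints by linear interpolation between flanking doses. Not reached: highest tested concentration assigned. GI50 = concentration required for 50% inhibition of growth.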 The source made the active and inactive calls. No stated cut-off is given here; in the data, active = GI50 up to about 1.1 µM and inactive = higher.
How the values were obtained:
Assay in all cases: growth of human tumour cells (NCI), 48 h
A498 = tested on: A498
EKVX = tested on: EKVX
HCC 2998 = tested on: HCC 2998
HCT-116 = tested on: HCT-116
HCT-15 = tested on: HCT-15
HL-60 = tested on: HL-60
HOP-92 = tested on: HOP-92
KM12 = tested on: KM12
MCF7 = tested on: MCF7
MOLT-4 = tested on: MOLT-4
NCI-H23 = tested on: NCI-H23
OVCAR-8 = tested on: OVCAR-8
RXF 393 = tested on: RXF 393
SF-295 = tested on: SF-295
SF-539 = tested on: SF-539
SR = tested on: SR
TK-10 = tested on: TK-10
UACC-257 = tested on: UACC-257
CCRF-CEM = tested on: CCRF-CEM
Malme-3M = tested on: Malme-3M

Measured: GI50

COc1cc(/C=C2\N=C(c3ccccc3)N(C3Nc4cc5c(cc4S3)NC(N3C(=O)/C(=C/c4cc(OC)c(OC)c(OC)c4)N=C3c3ccccc3)S5)C2=O)cc(OC)c1OC (stereo not drawn)
57.5 µM: HCT-15
inactive: A498 68.4 µM | EKVX 44.1 µM | HCC 2998 > 100 µM | HCT-116 77.6 µM | HL-60 65.9 µM | HOP-92 > 100 µM | KM12 89.3 µM | MCF7 46.7 µM | MOLT-4 25.9 µM | NCI-H23 94.6 µM | OVCAR-8 83.9 µM | RXF 393 > 100 µM | SF-295 83.6 µM | SF-539 42 µM | SR 20.5 µM | TK-10 > 100 µM | UACC-257 > 100 µM

O=C1CSC(/C=C/c2ccccc2)N1c1nc2cc3sc(N4C(=O)CSC4/C=C/c4ccccc4)nc3cc2s1 (stereo not drawn)
> 34.1 µM: HCT-15
inactive: A498 > 100 µM | CCRF-CEM 3.53 µM | EKVX 13.2 µM | HCC 2998 43.8 µM | HCT-116 27.7 µM | HL-60 68.1 µM | HOP-92 > 100 µM | KM12 48.9 µM | MCF7 13.5 µM | MOLT-4 5.9 µM | Malme-3M > 87.1 µM | NCI-H23 > 48.3 µM | OVCAR-8 > 100 µM | RXF 393 > 100 µM | SF-295 > 100 µM | SF-539 2.83 µM | SR 14.6 µM | TK-10 37.2 µM | UACC-257 > 86.5 µM

COc1cc2cc(C(=O)N3CC(CCl)c4ccc(NO)cc43)[nH]c2c(OC)c1OC (stereo not drawn)
active: A498 0.0675 µM | CCRF-CEM 0.137 µM | EKVX 0.35 µM | HCC 2998 0.0977 µM | HCT-116 0.253 µM | HL-60 0.126 µM | HOP-92 0.352 µM | KM12 0.155 µM | MCF7 0.0391 µM | MOLT-4 0.184 µM | Malme-3M 0.164 µM | NCI-H23 0.0693 µM | OVCAR-8 0.184 µM | RXF 393 0.114 µM | SF-295 0.0836 µM | SF-539 0.353 µM | SR 0.0577 µM | TK-10 0.313 µM | UACC-257 0.201 µM
0.243 µM: HCT-15

Cc1ccc(OCC2OC(n3cnc4c(Cl)nc(N)nc43)CC2Oc2ccc(C)cc2)cc1 (stereo not drawn)
31 µM: HCT-15
inactive: A498 > 75 µM | CCRF-CEM > 74.6 µM | EKVX 9.2 µM | HCC 2998 24.4 µM | HCT-116 47.5 µM | HL-60 13.9 µM | HOP-92 11 µM | KM12 > 51.8 µM | MCF7 2.75 µM | MOLT-4 25.2 µM | Malme-3M 24.5 µM | NCI-H23 19.2 µM | OVCAR-8 31.9 µM | RXF 393 39.9 µM | SF-295 15.2 µM | SF-539 > 55.7 µM | SR 36 µM | TK-10 58.6 µM | UACC-257 63.7 µM

COC(=O)C(F)C(Br)C(=O)OC (stereo not drawn)
1.82 µM: HCT-15
active: CCRF-CEM 0.684 µM | MOLT-4 0.9 µM
inactive: A498 20.9 µM | EKVX 2.19 µM | HCC 2998 8 µM | HCT-116 2.74 µM | HL-60 1.95 µM | HOP-92 2.56 µM | KM12 20.3 µM | MCF7 3.42 µM | Malme-3M 6.47 µM | NCI-H23 6.03 µM | OVCAR-8 3.63 µM | RXF 393 2.18 µM | SF-295 26.4 µM | SF-539 5.48 µM | SR 1.37 µM | TK-10 2.38 µM | UACC-257 14.6 µM

Source: ChEMBL document CHEMBL1201862, “PubChem BioAssay data set” (2004)
